Measurements taken from patent publication US3931174A, “Alkylmercaptomethylquinoxaline-1,4-dioxides and oxidized derivatives thereof” (Pfizer Inc., priority 1974, dated 1976).
≈ marks a conversion by molar mass, not a printed value.

How the values were obtained:
[1] = tested on: Streptococcus pyogenes; test: In vitro MIC, anaerobic agar dilution, Strep. pyogenes; type: cell-based; conditions: brain-heart infusion agar, 37°C.
Experimental: (§1) The in vitro activities are determined under anaerobic conditions in the following manner. Appropriate serial two-fold dilutions of the compounds are mixed with molten brain-heart infusion agar in sterile petri dishes and allowed to solidify. The bacterial cells (approximately 10^5 -10^6 cells) are placed on the top of the agar plate with a Steers replicating device. The plates are incubated at 37°C. in the anaerobic conditions achieved by a Gas Pak (BBL, Cockeysville, […].). The M.I.C. […] The in vitro and in vivo activities of compounds within this invention versus Streptococcus pyogenes and Escherichia coli are presented below: ##SPC4##

[2] = tested on: Escherichia coli; test: In vivo survivors (SC route), E. coli infection; conditions: SC route (subcutaneous); for responders at 100 mg/kg: 100 mg./kg. (footnote b)
Text: (§2) The in vitro and in vivo activities of compounds within this invention versus Streptococcus pyogenes and Escherichia coli are presented below: ##SPC4##

[3] = tested on: Streptococcus pyogenes; test: In vivo survivors (SC route), Strep. pyogenes infection; conditions: SC route (subcutaneous); for responders at 100 mg/kg: 100 mg./kg. (footnote b)
Text: as §2

[4] = tested on: Escherichia coli; test: In vitro MIC, anaerobic agar dilution, E. coli; type: cell-based; conditions: brain-heart infusion agar, 37°C.
Experimental: as §1

SMILES: Cc1c(CS(C)(=O)=O)[n+]([O-])c2ccccc2[n+]1[O-] [CH3 SO2 --CH3]
- MIC [1]: 1.56 µg/mL (≈ 5.82 µM)
- responders at 25 mg/kg [2]: 70%
- responders at 50 mg/kg [3]: 10%
- MIC [4]: 3.12 µg/mL (≈ 11.6 µM)

SMILES: Cc1c(C[S+](C)[O-])[n+]([O-])c2ccccc2[n+]1[O-] (centres unmarked) [CH3 SO--CH3, 2-methyl-3-methylsulfinylmethylquinoxaline 1,4-dioxide]
- MIC [1]: 25 µg/mL (≈ 99.1 µM)
- responders at 25 mg/kg [2]: 10%
- responders at 50 mg/kg [3]: 20%
- MIC [4]: > 200 µg/mL

SMILES: CCCSCc1c[n+]([O-])c2ccccc2[n+]1[O-] [H S--CH2 CH2 CH3, 2-n-propylthiomethylquinoxaline 1,4-dioxide]
- MIC [1]: 50 µg/mL (≈ 200 µM)
- responders at 25 mg/kg [2]: 60%
- responders at 50 mg/kg [3]: 0%
- MIC [4]: 50 µg/mL (≈ 200 µM)

SMILES: CSCc1c[n+]([O-])c2ccccc2[n+]1[O-] [H S--CH3, 2-methylthiomethylquinoxaline 1,4-dioxide]
- MIC [1]: 1.56 µg/mL (≈ 7.03 µM)
- responders at 100 mg/kg [2]: 70%
- responders at 100 mg/kg [3]: 50%
- MIC [4]: 1.56 µg/mL (≈ 7.03 µM)

SMILES: CCCS(=O)(=O)Cc1c[n+]([O-])c2ccccc2[n+]1[O-] [H SO2 --CH2 CH2 CH3]
- MIC [1]: 3.12 µg/mL (≈ 11.1 µM)
- responders at 25 mg/kg [2]: 90%
- responders at 50 mg/kg [3]: 90%
- MIC [4]: 25 µg/mL (≈ 88.6 µM)

SMILES: CCS(=O)(=O)Cc1c[n+]([O-])c2ccccc2[n+]1[O-] [H SO2 --CH2 CH3, 2-Ethylsulfonylmethylquinoxaline-1,4-Dioxide]
- MIC [1]: < 0.391 µg/mL
- responders at 25 mg/kg [2]: 100%
- responders at 50 mg/kg [3]: 100%
- MIC [4]: < 0.391 µg/mL

SMILES: CS(=O)(=O)Cc1c[n+]([O-])c2ccccc2[n+]1[O-] [H SO2 --CH3, 2-Methylsulfonylmethylquinoxaline 1,4-Dioxide]
- MIC [1]: < 0.391 µg/mL
- responders at 25 mg/kg [2]: 100%
- responders at 50 mg/kg [3]: 90%
- MIC [4]: < 0.391 µg/mL

SMILES: CC(C)S(=O)(=O)Cc1c[n+]([O-])c2ccccc2[n+]1[O-] [H SO2 --CH(CH3)2]
- MIC [1]: 1.56 µg/mL (≈ 5.53 µM)
- responders at 25 mg/kg [2]: 90%
- responders at 50 mg/kg [3]: 100%
- MIC [4]: 0.781 µg/mL (≈ 2.77 µM)

SMILES: CCC[S+]([O-])Cc1c[n+]([O-])c2ccccc2[n+]1[O-] (centres unmarked) [H SO--CH2 CH2 CH3, 2-n-propylsulfinylmethylquinoxaline 1,4-dioxide]
- MIC [1]: 1.56 µg/mL (≈ 5.87 µM)
- responders at 25 mg/kg [2]: 50%
- responders at 50 mg/kg [3]: 60%
- MIC [4]: 6.25 µg/mL (≈ 23.5 µM)

SMILES: CC[S+]([O-])Cc1c[n+]([O-])c2ccccc2[n+]1[O-] (centres unmarked) [H SO--CH2 CH3, 2-Ethylsulfinylmethylquinoxaline 1,4-Dioxide]
- MIC [1]: 0.781 µg/mL (≈ 3.1 µM)
- responders at 25 mg/kg [2]: 90%
- responders at 50 mg/kg [3]: 20%
- MIC [4]: 3.12 µg/mL (≈ 12.4 µM)

SMILES: C[S+]([O-])Cc1c[n+]([O-])c2ccccc2[n+]1[O-] (centres unmarked) [H SO--CH3, 2-Methylsulfinylmethylquinoxaline 1,4-Dioxide]
- MIC [1]: < 0.391 µg/mL
- responders at 100 mg/kg [2]: 100%
- responders at 100 mg/kg [3]: 30%
- MIC [4]: < 0.391 µg/mL
